# Test results taken from patent publication US12215111B2, “Imidazopyridazine IL-17 inhibitor compounds” (Janssen Pharmaceutica NV, priority 2021, dated 2025).
# Tests used:
# [1] = target: T1, IL-17A(FLAG-Tagged): IL-17RA(His-Tagged) (Homo sapiens, UniProt Q16552, K93Q); assay: IL-17A(FLAG-tagged):IL-17RA(His-tagged) binding disruption Eu-HTRF assay, Protocol 1; conditions: FLAG tagged IL-17A at 2× final concentration (2.5 nM); simple average if tested more than once
# [2] = system: IL-17A-induced G-CSF production in human normal keratinocyte (NHK); assay: NHK assay: IL-17A-induced G-CSF production in normal human keratinocytes; assay type: cell-based; conditions: Homo sapiens, Keratinocyte; IL-17A 5 ng/mL, 24 h at 37° C., G-CSF by HTRF; simple average if tested more than once
# Summary of the method: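 Compound titrations are first mixed with recombinant human IL-17A for 1 h at room temperature. The mixture goes onto adult normal human keratinocytes (final IL-17A 5 ng/mL, 5% FBS, 0.2% DMSO) for 24 h at 37 °C. Secreted G-CSF is then measured by HTRF and IC50 fitted.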
# [3] = target: T1, IL-17A(FLAG-Tagged): IL-17RA(His-Tagged); assay: IL-17A(FLAG-tagged):IL-17RA(His-tagged) binding disruption Eu-HTRF assay, Protocol 2; conditions: FLAG tagged IL-17A at 2× final concentration (1 nM); simple average if tested more than once
# Description: IL-17A(FLAG-Tagged): IL-17RA(His-Tagged) Binding Disruption Eu-HTRF Assay
# An antibody directed against the FLAG tag of IL-17A (SEQ ID NO:1) is labeled with the HTRF donor chromophore (Europium-cryptate). IL-17A is present as a dimer that is “locked into” this quaternary structure due to the formation of loop-spanning […] disulfide bridges. The construct of IL-17RA used in the assay excludes the outer-membrane portion of the receptor and is fused to a C-terminal 10×His tag (SEQ ID NO:2). An antibody directed against the His tag of the IL-17RA chimera is labeled with the HTRF acceptor chromophore (“D2”). The fluorescence-resonance energy transfer (FRET) depends on the vicinity of the donor chromophore to the acceptor, and interruption of the binding between the IL-17A and IL-17RA causes the reduction/loss of FRET. Therefore, this assay allows to evaluate the compound effect on the binding IL-17A and IL-17RA by monitoring the fluorescence intensity of donor vs acceptor. The assay was run using either Protocol 1 or Protocol 2 described below.
# Protocol 2. 40 nl of 2-fold serial diluted compound solution for total 22 dilution points is added into each well of a 1536-well, white, low-volume, non-binding plate (Greiner #782904), then 2 μl of FLAG tagged IL-17A at 2× final concentration (1 nM) in solution of PBS+0.01% Triton-X100 is added to each well. The assay plate is briefly centrifuged then incubated for 1 h at rt. A mixed solution is prepared containing 2×5 nM 10HIS×IL-17RA, 2×2.5 nM Eu-anti-FLAG (CISBIO), 2×5 nM D2-anti-HIS (CISBIO) in PBS+0.01% Triton-X100+200 mM Potassium Fluoride (Sigma 60238) and […] of mix is added to each well of the assay plate. The plate is briefly centrifuged then incubated for 2 h at rt. The HTRF intensities at the wavelength of donor (615 nm) and acceptor (665 nm) are measured using BMG Pherastar. The ratio between intensities at two wavelengths is calculated and plotted against the compound concentration and the data is fitted to a one-site competition model to yield IC50 of the compound.
# [4] = moderate-to-severe HS, seven of nine patients, open-label pilot-trial; cited from earlier work
# T1 sequence (Q16552 with tags, fused parts or gaps K93Q): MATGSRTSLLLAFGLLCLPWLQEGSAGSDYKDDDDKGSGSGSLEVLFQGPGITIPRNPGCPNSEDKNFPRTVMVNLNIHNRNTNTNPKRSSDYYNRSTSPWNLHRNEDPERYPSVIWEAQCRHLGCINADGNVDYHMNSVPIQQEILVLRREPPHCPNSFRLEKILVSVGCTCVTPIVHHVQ
IC50 [1],IC50 [3],Compound,IC50 [2],patients who achieved HiSCR [4]
< 4 µM,< 4 µM,"O=C(N[C@H](c1cn2ncc(CN3C(=O)N[C@@H]4CC(F)(F)C[C@@H]43)cc2n1)C1CCC(F)(F)CC1)c1nonc1C1CC1 (single isomer, unassigned) [Example 7, 4-Cyclopropyl-N—((S)-(7-(((3aR*,6aS*)-5,5-difluoro-2-oxohexahydrocyclopenta[d]imidazol-1(2H)-yl)methyl)imidazo[1,2-b]pyridazin-2-yl)(4,4-difluorocyclohexyl)methyl)-1,2,5-oxadiazole-3-carboxamide]",< 4 µM,–
–,< 4 µM,"CC(C)n1nccc1C(=O)N[C@H](c1cn2ncc(CN3CC4(CC(F)(F)C4)NC3=O)cc2n1)C1CCC(F)(F)CC1 [Example 46, (S)—N-((7-((2,2-Difluoro-6-oxo-5,7-diazaspiro[3.4]octan-7-yl)methyl)imidazo[1,2-b]pyridazin-2-yl)(4,4-difluorocyclohexyl)methyl)-1-isopropyl-1H-pyrazole-5-carboxamide]",4 to 10 µM,–
–,< 4 µM,"COC[C@H](c1cnn2cc([C@H](CCC(C)(C)C(F)(F)F)NC(=O)c3nonc3OC)nc2c1)N1C[C@@](C)(C(F)(F)F)NC1=O [Example 47, 4-Methoxy-N—((S)-5,5,5-trifluoro-1-(7-((S)-2-methoxy-((S)-4-methyl-2-oxo-4-(trifluoromethyl)imidazolidin-1-yl)ethyl)imidazo[1,2-b]pyridazin-2-yl)-4,4-dimethylpentyl)-1,2,5-oxadiazole-3-carboxamide]",< 4 µM,–
–,< 4 µM,"Cc1nonc1C(=O)N[C@@H](CCC(C)(C)C(F)(F)F)c1cn2ncc(CN3C[C@@](C)(C(F)(F)F)NC3=O)cc2n1 [Example 48, 4-Methyl-N—((S)-5,5,5-trifluoro-4,4-dimethyl-1-(7-(((S)-4-methyl-2-oxo-4-(trifluoromethyl)imidazolidin-1-yl)methyl)imidazo[1,2-b]pyridazin-2-yl)pentyl)-1,2,5-oxadiazole-3-carboxamide]",< 4 µM,–
–,< 4 µM,"Cc1nonc1C(=O)N[C@@H](CCC(C)(C)C(F)(F)F)c1cn2ncc(CN3C[C@](C)(C(F)(F)F)NC3=O)cc2n1 [Example 49, 4-Methyl-N—((S)-5,5,5-trifluoro-4,4-dimethyl-1-(7-(((R)-4-methyl-2-oxo-4-(trifluoromethyl)imidazolidin-1-yl)methyl)imidazo[1,2-b]pyridazin-2-yl)pentyl)-1,2,5-oxadiazole-3-carboxamide]",< 4 µM,–
–,–,secukinumab,–,78%
